From patent US10392363B2, “Methods for treating protozoan infections” (Neoculi Pty Ltd., priority 2014, dated 2019)
One block for each compound: values may come before it.

Legend:
[1] = test system: T. brucei procyclic stage; assay: T. brucei screening (alamar blue); assay type: cell-based, Trypanosoma brucei; conditions: for reduction of metabolic activity / inhibitory effect on T. brucei: 10 μM, 48 hrs; for T. brucei SI: GI50 of macrophages divided by IC50 of parasites
Protocol: T. brucei screening. Procyclic promastigotes from exponentially growing cells maintained SDM-79 medium were used in all assays. Compounds were initially screened at 10 μM for activity. Compounds were diluted in culture media to a concentration of 20 μM and added to a 96 well plate, after addition of promastigotes (final concentration 4×10^5 cells/ml) compound concentration was 10 μM. Cells were incubated for 48 hrs at 27° C. before the addition of alamar blue and fluorescence measurement as described above. […] Compounds were serially diluted in thirds in culture media resulting in final concentrations ranging from 0.004-10 μM. Promastigotes were added at a final concentration of 4×10^5 cells/ml. Cells were incubated at 27° C. for 48 hours before addition of alamar blue. In addition promastigotes, at a concentration of 8×10^5 were exposed to NCL026 for 1.5 hours before removal of the drug via centrifugation at 5000 rpm for 7 minutes and resuspension of cells in culture media. Cells were incubated for 96 hours at 27° C. and observed daily for metabolic activity (alamar blue assay) and morphological changes. A control culture was exposed to DMSO instead of NCL026.

[2] = Exposure in male Swiss outbred mice following IV administration; assay type: in vivo; conditions: IV 5 mg/kg; for Apparent t1/2: plasma, value marked b is an approximation; for AUC0-inf / Plasma CL / Plasma Vss: values marked a, b are approximations
Protocol: The systemic exposures of NCL026, NCL195, NCL259 and NCL812 were studied in nonfasted male Swiss outbred mice weighing 26.2-32.1 g. Mice had access to food and water ad libitum throughout the pre- and post-dose sampling period. Each compound was administered IV via a bolus injection into the tail vein (vehicle 20% (v/v) DMSO in PEG400, 1 mL/kg dose volume, n=8 mice per compound). […] A maximum of two samples were obtained from each mouse, with samples being taken either via submandibular bleed (approximately 120 μL; conscious sampling) or terminal cardiac puncture (0.6 mL; while mice were anaesthetised using inhaled Isoflurane). No urine samples were collected as mice were housed in bedded cages during the study. Blood was collected directly into polypropylene Eppendorf tubes containing heparin as anticoagulant, and stabilisation cocktail (containing Complete® (a protease inhibitor cocktail with EDTA) and potassium fluoride) to minimise the potential for ex vivo degradation of the test compounds in blood/plasma samples. Once collected, blood samples were centrifuged immediately, supernatant plasma was removed, and stored at −80° C. until analysis by LC-MS using methods standard in the art. Each compound was administered in a vehicle composed of 20% (v/v) DMSO in PEG400. Formulations were prepared by dissolving the compounds in DMSO prior to addition of PEG400. Formulations were not filtered prior to dosing and were administered to mice within 2.5 h of preparation. […] The dose administered to each mouse was calculated on the basis of the measured concentration in the IV formulation, the dose volume and individual mouse body weight. Plasma concentration versus time data were analysed using non-compartmental methods (WinNonlin Version 6.3.0.395). Standard calculations for each pharmacokinetic parameter were calculated using standard methods in the art.

[3] = test system: Leishmania donovani promastigotes; assay: L. donovani screening (Alamarblue); assay type: cell-based; conditions: for L. donovani SI: GI50 of macrophages divided by IC50 of parasites; for inhibition at 10 µM: 96 hrs, read-out: reduction of metabolic activity / inhibition of L. donovani
Protocol: L. donovani Screening. Procyclic promastigotes from exponentially growing cultures maintained in DME-L+ Bob additions were used for all assays. Compounds were initially screened for activity at 10 μM. Compounds were diluted in culture media to a […] in 96 well plates. Promastigotes were diluted to a density of ˜8×10^5 cells/ml then added to the assay plate resulting in a final cell density of 4×10^5 cells/ml. in 96 well plates. Cells were incubated for 96 hrs at 27° C. before the addition of Alamarblue (thermofisher). Fluorescence was read at excitation 530 nm and Emission 590 nm. […] Compounds were serially diluted in thirds, in a 96 well plate, in cell growth media so that concentrations ranged from 0.005 to 10 μM and promastigotes added to a final concentration of 1×10^6 cells/ml. Cells were incubated at 27° C. for 72 hours before the addition of alamar blue. Fluorescence was measured as above.

[4] = test system: Trypanosoma cruzi (Tulahuen trypomastigotes expressing β-galactosidase, in L6 cells); assay: In vitro T. cruzi assay for determination of IC50; assay type: cell-based; conditions: 96 h incubation
Protocol: The T. cruzi assay uses Tulahuen trypomastigotes expressing the β-galactosidase gene. The parasites were maintained in vitro by serial passage in L6 cells. […] Extracellular trypomastigotes were then removed and NCL compounds were added in seven-point serial dilutions performed in triplicate. Benznidazole (Epichem Pty Ltd.) was included as a control. […] After 4-6 h, a colour change following catabolisation of the reagent by viable T. cruzi was observed and absorbance was read at 530 nm using a Dynex microplate reader. […] For each compound, % inhibition values were used to generate a standard curve from which the IC50 was calculated. Each assay was performed at least twice, and the average was used.

[5] = test system: Mouse macrophages (RAW 264.7); assay: Cell toxicity assay (WST-1); assay type: cell-based; conditions: RAW 264.7, 24 hours, read-out: GI50 macrophage
Protocol: (§1) Cell toxicity assays. Mouse macrophages (RAW 264.7) were grown in RPM11640 media supplemented with L-glutamine and 10% foetal calf serum. Cells were trypsanised when 80% confluent and subcultured every 3-4 days. For cytotoxicity assays cells were diluted to a final cell concentration of 2×10^4 cells/ml and 198 μl added to each well of a 96 well plate. Cells were incubated in a humidified incubator for 2 hours at 37° C. 5% CO2 before the addition of NCL compounds (2 μl/well, previously diluted in DMSO). Campothecin, triton X and DMSO only were used as controls. Cells were exposed to the compounds for 24 hours. The metabolic activity of the cells was determined using the WST-1 assay system (Roche Life Science). The supernatant was removed, 100 μl of PBS with 10% WST-1 was added to each well and incubated for 1 hr before reading absorbance at 450 nm. The selectivity index of the compounds was determined by dividing the IC50 of macrophages by the IC50 against parasites. IC50 was determined via graphpad prism software.

[6] = test system: Giardia duodenalis trophozoites; assay: Resazurin reduction assay (Example 3); assay type: cell-based; conditions: 42 hours, then 6 hours with Alamarblue
Protocol: Giardia trophozoites were grown until confluent. The media was replaced with fresh media and they were cold shocked for 40 minutes (as above). Cells were diluted to a concentration of ˜500 000 cells/ml and 100 μl were added to each well of the assay plate (except media only control). The assay was incubated in an anaerobic environment (candle jar) for 42 hours at 37° C. […] After incubation the absorbance of each sample was read at 570 and 630 nm. The percent reduction of resazurin (Alamarblue™) was calculated and data was analysed with GraphPad Prism v6 software. Assay set-up: the assay was performed in 96 well plates in a total volume of 200 μl. 100 μl of NCL812 or NCL062 (concentration of 25.6 mg/ml in DMSO) or metronidazole (concentration 5 mg/ml in DMSO) stock was added to 9.9 ml of TYI-S-33 medium, then serially diluted 1:2 in the same medium. Cells were added as above.

[7] = Cell toxicity assay (WST-1); assay type: cell-based, mouse; conditions: mouse, RAW 264.7 macrophages, RAW 264.7, 24 hours, read-out: GI50 macrophage
Protocol: as §1

[8] = Exposure of NCL195 in male Swiss outbred mice following IP administration; assay type: in vivo
Protocol: The formulation was prepared by dissolving solid NCL195 in DMSO (to 20% (v/v) of the final volume) before adding PEG400, yielding a clear yellow solution that was dosed to mice within 30 minutes of preparation. The measured concentration of NCL195 in the final formulation was 21.9 mg/mL, resulting in a mean administered dose of 43 mg/kg. Following administration, blood samples were collected up to 24 h post-dose (n=2 mice per time point). A maximum of two samples were obtained from each mouse, with samples being taken either via submandibular bleed (approximately 120 μL; conscious sampling) or terminal cardiac puncture (0.6 mL; while mice were anaesthetised using inhaled Isoflurane). No urine samples were collected as mice were housed in bedded cages during the study. Blood was collected directly into polypropylene Eppendorf tubes containing heparin as anticoagulant and stabilisation cocktail (containing Complete® (a protease inhibitor cocktail), potassium fluoride and EDTA) to minimise the potential for ex vivo degradation of NCL195 in blood/plasma samples. Once collected, blood samples were centrifuged immediately, supernatant plasma was removed, and stored in −20° C. until analysis by LCMS using standard methods in the art.

[9] = test system: Giardia duodenalis (strain WB trophozoites); assay: Giardia adherence assay; assay type: cell-based; conditions: exposed for 5 hours
Protocol: Giardia strain WB was grown until confluent (grown and maintained in TYI-S-33 medium with 10% foetal bovine serum). For the assay, media of a confluent culture was replaced with fresh TYI-S-33 medium. Cultures were then cold shocked (on ice) for 40 minutes to detach trophozoites. The cell density of the cultures was adjusted to 1×10^6 cells/ml and 1 ml was added to each well of a 24 well plate already containing 1 ml of diluted compounds (see below). […] After incubation the coverslips were removed, air-dried and stained with Diff-Quik (a Romanowski stain variant). Coverslips were mounted onto glass slides using polymount. Images at 10× magnification were taken at 5 random locations per coverslip. […] Stock solutions of compounds were prepared in DMSO at 25.6 mg/ml. Compounds were diluted 1:100 in TYI-S-33 medium. A 1:2 serial dilution was then performed in TYI-S-33 medium in 24 well plates.

giardia = conditions: cited from earlier work

SMILES: N#Cc1cccc(C=NNC(=N)NN=Cc2cccc(C#N)c2)c1 [NCL026]
reduction of metabolic activity / inhibitory effect on T. brucei [1]: greatest inhibitory effect
IC50 ([1]; 48 hours): 1700 nM
IC50 ([1]; 48 hours, listed as NCL 026): 1680 ± 630 nM
T. brucei SI [1]: 5.71
Apparent t1/2 [2]: 1.5 h
AUC0-inf [2]: 2.5 µM·h
Plasma CL [2]: 100.6 mL/min/kg
Plasma Vss [2]: 6.9 L/kg
IC50 ([3]; 72 hours): 2500 ± 130 nM
L. donovani SI [3]: 3.84
IC50 [4]: 1400 nM
GI50 [5]: 9600 ± 990 nM

SMILES: N=C(N)N/N=C/c1ccc(C(F)(F)F)cc1 [NCL041]
inhibition at 10 µM ([3]; Leishmania donovani): 100%
IC50 ([4]; Trypanosoma cruzi, TULAHUEN, L6): 14000 nM

SMILES: CN(C)c1ccc(C=NNC(=N)NN=Cc2ccc(N(C)C)cc2O)c(O)c1 [NCL171]
IC50 ([1]; 48 hours): 1400 nM
IC50 ([1]; 48 hours, listed as NCL 171): 1370 ± 30 nM
T. brucei SI [1]: relatively selective
T. brucei SI ([1]; listed as NCL 171): 9.14
GI50 [5]: 12500 ± 3610 nM

SMILES: Cc1ccc(/C=N/Nc2cc(N/N=C/c3ccc(C)cc3)nc(N)n2)cc1 [NCL195, 4,6-bis(2-((E)-4-methylbenzylidene)hydrazinyl)pyrimidin-2-amine]
IC50 ([1]; 48 hours): 1460 ± 760 nM
T. brucei SI [1]: 3.79
IC50 ([1]; Trypanosoma brucei, 48 h): 1500 nM
Apparent t1/2 [2]: 2.4 h
AUC0-inf [2]: 12.5 µM·h
Plasma CL [2]: 16.3 mL/min/kg
Plasma Vss [2]: 2.6 L/kg
inhibition at 10 µM ([3]; Leishmania donovani): 100%
absorption after dosing ([8]; IP, 43 mg/kg): rapidly absorbed
adverse reactions or compound-related side effects ([8]; IP, 43 mg/kg): No adverse reactions or compound-related side effects
duration of exposure at a plasma concentration >8 μg/mL ([8]; extrapolated to IP 100 mg/kg, assuming dose proportionality): at least 7.5 hours
GI50 at 24 h [7]: 5780 ± 330 nM

SMILES: Cc1ncc([N+](=O)[O-])n1CCO [metronidazole, reference compound]
number of adherent trophozoites [9]: significant decreases
median efficacy (giardia; giardia treatment): approximately 89%
giardia curative rate (clearance of the protozoan) (giardia; human adult and paediatric patients, 5-10 days, reported as low as): ≥ 60%
metabolic activity of the trophozoites (percentage of reduction of resazurin) [6]: reduction in the metabolic activity

SMILES: CC(=O)Oc1ccccc1C(=O)Nc1ncc([N+](=O)[O-])s1 [nitazoxanide]
overall response rate (clearance of the protozoan) (giardia; giardia): 75%

More lines, main results first:

IC50 ([1]; Trypanosoma brucei, 48 h): 4040 ± 830 nM
SMILES: C/C(=N\NC(=N)N/N=C(\C)c1ccc(Cl)cc1)c1ccc(Cl)cc1.Cl [NCL062]
reduction of metabolic activity / inhibitory effect on T. brucei [1]: greatest inhibitory effect
T. brucei SI [1]: 1.75
inhibition at 10 µM ([3]; Leishmania donovani): 100%
metabolic activity of the trophozoites (percentage of reduction of resazurin) [6]: reduction in the metabolic activity
GI50 at 24 h [7]: 7150 ± 1270 nM

IC50 ([3]; Leishmania donovani, 72 h): 920 ± 60 nM
SMILES: CN(C)c1ccc(/C=N/NC(=N)N/N=C/c2ccc(N(C)C)cc2)cc1.Cl [NCL113]
L. donovani SI [3]: highly selective
L. donovani SI ([3]; listed as NCL 113): 14
GI50 at 24 h [7]: 12900 ± 3490 nM

IC50 ([3]; 72 hours): 3230 ± 1000 nM
SMILES: Cl.N=C(NN=Cc1ccc(SC(F)(F)F)cc1)NN=Cc1ccc(SC(F)(F)F)cc1 [NCL166]
L. donovani SI [3]: 2.78
GI50 [5]: 9460 ± 50 nM
